As a reminder, the AC50 is the concentration at which the activity in the assay is half-maximal. The IC50 is the concentration needed to halve the response being measured.

SMILES strings stand for the structures. Like-named read-outs stand apart in the source and are kept apart here. A value given as a limit tells only on which side of the number the result lay.

The target of assay [1] is PD-L1 (Homo sapiens (Human), UniProt Q9NZQ7). The assay is described as follows: PD-L1/PD-L1 dimerization biochemical protein-protein interaction assay (ALPHA). It counts as binding. To be noted: read-out: AC50 PDL1 Dimer 1 nM.
Assay [2] addresses PD-1/PD-L1 (Homo sapiens (Human), UniProt Q9NZQ7). The assay is described as follows: PD-1/PD-L1 biochemical protein-protein interaction assay (ALPHA). It counts as binding. Particulars: read-out: IC50 PD-L1-PD1.
Where [3] appears, read: 0.5 nM His tagged PD-L1 and 0.5 nM FLAG tagged PD-L1, Table 4B.
[4] abbreviates: 0.3 nM His tagged PD-L1, 2.5 nM biotinylated Fc-PD-1, Table 3B.
[5] abbreviates: 0.5 nM His tagged PD-L1 and 0.5 nM FLAG tagged PD-L1, Table 4A.
Setting [6] is: 0.3 nM His tagged PD-L1, 2.5 nM biotinylated Fc-PD-1, readings of 0.064 nM are equal to or less than 0.064 nM.

PD-1/PD-L1, sequence (Q9NZQ7 19-238): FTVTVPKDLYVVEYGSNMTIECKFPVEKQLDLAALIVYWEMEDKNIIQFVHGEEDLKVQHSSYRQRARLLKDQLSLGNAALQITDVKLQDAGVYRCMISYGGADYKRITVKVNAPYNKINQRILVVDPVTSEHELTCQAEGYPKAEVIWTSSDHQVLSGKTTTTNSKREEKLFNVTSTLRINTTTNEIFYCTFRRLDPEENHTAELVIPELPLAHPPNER
PD-L1, sequence (Q9NZQ7 19-238): as above
PD-L1, sequence (Q9NZQ7 19-238): as above

As for `CNC(=O)[C@H](C)NCc1cc(C(F)(F)F)c(O[C@H]2CCc3c(-c4cccc(-c5ccc(CNC[C@@H]6CCC(=O)N6)c(OC)n5)c4Cl)cccc32)nc1OC` [B-249], the half-maximal activity concentration (AC50) in assay [1] (setting [3]) is 35.5 nM. Moreover, the IC50 in assay [2] (setting [4]) was 0.065 nM.
As to `COc1nc(-c2cccc(-c3cccc4c3CC[C@@H]4Nc3nc(OC)c(CNC4(C(=O)O)CCC4)cc3C(F)(F)F)c2Cl)ccc1CNCC1CCC(=O)N1` (stereo partly shown) [A-22], in assay [1] (setting [5]), the AC50 turned out to be 8.17 nM. Further, in assay [2] (setting [6]), the half-inhibitory concentration (IC50) was ≤ 0.064 nM.
In the case of `COc1cc(O[C@H]2CCc3c(-c4cccc(-c5ccc(CNC[C@@H]6CCC(=O)N6)c(OC)n5)c4Cl)cccc32)c(Cl)cc1CN1CC[C@H](C(=O)O)C1` [B-167], in assay [1] (setting [3]), the AC50 was 51.6 nM. Besides, the half-maximal inhibitory concentration (IC50) in assay [2] (setting [4]) was 0.064 nM.
The matching figures for `COc1nc(-c2cccc(-c3cccc4c3CC[C@@H]4Oc3nc(OC)c(CNCCC(=O)O)cc3C(F)(F)F)c2Cl)ccc1CNC[C@@H]1CCC(=O)N1` [B-267]: 7.26 nM and 0.064 nM.
As for `COc1nc(-c2cccc(-c3cccc4c3CC[C@@H]4Oc3nc(OC)c(CN(C)CC(=O)O)cc3C(F)(F)F)c2Cl)ccc1CN[C@H]1C[C@](C)(O)C1` [B-210], the AC50 in assay [1] (setting [3]) came out at 23.7 nM. Further, in assay [2] (setting [4]), the half-inhibitory concentration (IC50) is 0.064 nM.
On to `COc1nc(-c2cccc(-c3cccc4c3CC[C@@H]4Nc3nc(OC)c(CN4CC(C)(O)C4)cc3Cl)c2Cl)ccc1CNC[C@@H]1CCC(=O)N1` [A-6], for which the AC50 in assay [1] (setting [5]) was found to be 188 nM. The half-inhibitory concentration (IC50) in assay [2] (setting [6]) turned out to be 0.67 nM.
The matching figures for `CCC1C(C(=O)O)CCN1Cc1nc(C(F)(F)F)c(N[C@H]2CCc3c(-c4cccc(-c5ccc(CNC[C@@H]6CCC(=O)N6)c(OC)n5)c4Cl)cccc32)nc1OC` (stereo partly shown) [A-77]: 26.6 nM and ≤ 0.064 nM.
In the case of `COc1nc(-c2cccc(-c3cccc4c3CC[C@@H]4Oc3nc(OC)c(CN[C@@H](C)C(=O)O)cc3C)c2Cl)ccc1CNC[C@@H]1CCC(=O)N1` [B-241], the AC50 in assay [1] (setting [3]) turned out to be 7.58 nM. The IC50 in assay [2] (setting [4]) came to 0.064 nM.
Turning to `COc1nc(-c2cccc(-c3cccc4c3CC[C@@H]4Oc3nc(OC)c(CN4C[C@H]5C[C@@]5(C(=O)O)C4)cc3C(F)(F)F)c2Cl)ccc1CNC[C@@H]1CCC(=O)N1` [B-198], in assay [1] (setting [3]), the AC50 is 15.3 nM. Also, the half-inhibitory concentration (IC50) in assay [2] (setting [4]) came out at 0.064 nM.
`COc1nc(-c2cccc(-c3cccc4c3CC[C@@H]4Oc3nc(OC)c(CN4CC[C@@H](C(=O)O)C4)cc3C(F)(F)F)c2Cl)ccc1CN[C@H]1C[C@](C)(O)C1` [B-2]: the half-maximal activity concentration (AC50) in assay [1] (setting [3]) was 17.5 nM. For the same molecule, the IC50 in assay [2] (setting [4]) worked out at 0.064 nM.
`COc1nc(-c2cccc(-c3cccc4c3CC[C@@H]4Nc3nc(OC)c(CNCC(=O)O)nc3C(F)(F)F)c2Cl)ccc1CN[C@@H]1CCCC[C@@H]1O` [A-109]: the AC50 in assay [1] (setting [5]) stood at 8.98 nM. Also, the IC50 in assay [2] (setting [6]) is ≤ 0.064 nM.
`COc1nc(-c2cccc(-c3cccc4c3CC[C@@H]4Nc3nc(OC)c(CN[C@@H](C)C(=O)O)nc3C(F)(F)F)c2Cl)ccc1CN[C@H]1C[C@](C)(O)C1` [A-50]: the AC50 in assay [1] (setting [5]) was found to be 17.6 nM. The 50% inhibitory concentration (IC50) in assay [2] (setting [6]) was ≤ 0.064 nM.
For the molecule `COc1nc(-c2cccc(-c3cc(F)cc4c3CC[C@@H]4Oc3nc(OC)c(CN4CC[C@@H](C(=O)O)C4)cc3C(F)(F)F)c2Cl)ccc1CNC[C@@H]1CCC(=O)N1` [B-217], the half-maximal activity concentration (AC50) in assay [1] (setting [3]) was 28.9 nM. For the same molecule, the IC50 in assay [2] (setting [4]) was found to be 0.064 nM.
Consider `COc1nc(-c2cccc(-c3cccc4c3CC[C@@H]4Nc3nc(OC)c(CN4CCC5CC4(C(=O)O)C5)cc3C(F)(F)F)c2Cl)ccc1CNC[C@@H]1CCC(=O)N1` [A-59], for which the AC50 in assay [1] (setting [5]) came out at 7.75 nM. Moreover, the concentration for half-maximal inhibition (IC50) in assay [2] (setting [6]) is ≤ 0.064 nM.
On to `COc1nc(O[C@H]2CCc3c(-c4cccc(-c5cnc(CNC[C@@H]6CCC(=O)N6)c(OC)n5)c4Cl)cccc32)c(Cl)cc1CN1CC(C(=O)O)C1` [B-43], for which the concentration at half-maximal activity (AC50) in assay [1] (setting [3]) was found to be 44.3 nM. The 50% inhibitory concentration (IC50) in assay [2] (setting [4]) was 0.064 nM.
The matching figures for `CC[C@@](C)(NCc1cc(C(F)(F)F)c(O[C@H]2CCc3c(-c4cccc(-c5ccc(CNC[C@@H]6CCC(=O)N6)c(OC)n5)c4Cl)cccc32)nc1OC)C(=O)O` [B-235]: 2.42 nM and 0.064 nM.
Take `CC[C@H](NCc1cc(C(F)(F)F)c(O[C@H]2CCc3c(-c4cccc(-c5ccc(CN[C@H]6C[C@](C)(O)C6)c(OC)n5)c4Cl)cccc32)nc1OC)C(=O)O` [B-211]: the AC50 in assay [1] (setting [3]) amounted to 9.21 nM. For the same molecule, in assay [2] (setting [4]), the IC50 came out at 0.064 nM.
On to `COc1nc(-c2cccc(-c3cccc4c3CC[C@@H]4Nc3nc(OC)c(CN4CC5(C(=O)O)CCC4CC5)cc3C(F)(F)F)c2Cl)ccc1CNC[C@@H]1CCC(=O)N1` [A-1], for which the concentration at half-maximal activity (AC50) in assay [1] (setting [5]) is 13.2 nM. Also, in assay [2] (setting [6]), the IC50 is ≤ 0.064 nM.
Regarding `COc1nc(-c2cccc(-c3cccc4c3CC[C@@H]4Oc3nc(OC)c(C(C)N4CC(C(=O)O)C4)cc3C(F)(F)F)c2Cl)ccc1CNC[C@@H]1CCC(=O)N1` (stereo partly shown) [B-119], the concentration at half-maximal activity (AC50) in assay [1] (setting [3]) turned out to be 24.5 nM. Moreover, the IC50 in assay [2] (setting [4]) stood at 0.064 nM.
Regarding `COc1nc(-c2cccc(-c3cccc4c3CC[C@@H]4Oc3nc(OC)c(CN4CC[C@@](C)(C(=O)O)C4)cc3C(F)(F)F)c2Cl)ccc1CNC[C@H]1C[C@](C)(O)C1` [B-208], in assay [1] (setting [3]), the AC50 turned out to be 23.5 nM. Besides, the IC50 in assay [2] (setting [4]) was determined as 0.064 nM.
In the case of `COc1nc(O[C@H]2CCc3c(-c4cccc(-c5cc(C)c(CNC[C@@H]6CCC(=O)N6)c(OC)n5)c4Cl)cccc32)c(C)cc1CNC(C)(C)C(=O)O` [B-243], the half-maximal activity concentration (AC50) in assay [1] (setting [3]) worked out at 15.8 nM. Moreover, the IC50 in assay [2] (setting [4]) is 0.064 nM.
With `COc1nc(-c2cccc(-c3cccc4c3CC[C@@H]4Oc3nc(OC)c(CN4CC[C@@H](C(=O)N=S(C)(=O)N(CC(F)(F)F)CC(F)(F)F)C4)cc3Cl)c2Cl)ccc1CNC[C@@H]1CCC(=O)N1` (stereo partly shown) [B-160], the half-maximal activity concentration (AC50) in assay [1] (setting [3]) turned out to be 309 nM. Also, the IC50 in assay [2] (setting [4]) amounted to 0.54 nM.
The matching figures for `COc1nc(O[C@H]2CCc3c(-c4cccc(-c5ccc(CNC[C@@H]6CCC(=O)N6)c(OCC#N)n5)c4Cl)cccc32)c(C(F)(F)F)cc1CN1CC[C@@H](C(=O)O)C1` [B-127]: 5.46 nM and 0.064 nM.
The matching figures for `COc1nc(-c2cccc(-c3cccc4c3CC[C@@H]4Oc3nc(OCc4cc(Cl)cc(C#N)c4)c(CN4CC5(C(=O)O)CCC4CC5)cc3Cl)c2Cl)ccc1CNC[C@@H]1CCC(=O)N1` [B-31]: 32.3 nM and 0.085 nM.
Turning to `COc1nc(-c2cccc(-c3cccc4c3CC[C@@H]4Nc3nc(OC)c(CNCC(=O)O)cc3C(F)(F)F)c2Cl)ccc1CNC[C@@H]1CCC(=O)N1` [A-65], in assay [1] (setting [5]), the concentration at half-maximal activity (AC50) turned out to be 14.7 nM. The IC50 in assay [2] (setting [6]) was ≤ 0.064 nM.
For `COc1nc(-c2cccc(-c3cccc4c3CC[C@@H]4Nc3nc(OC)c(CN[C@@H](C)C(=O)O)cc3C(F)(F)F)c2Cl)ccc1CNC[C@@H]1CCC(=O)N1` [A-64], the half-maximal activity concentration (AC50) in assay [1] (setting [5]) was 8.04 nM. For the same molecule, the half-inhibitory concentration (IC50) in assay [2] (setting [6]) was ≤ 0.064 nM.

The values are drawn from patent US10774071B2, “PD-1/PD-L1 inhibitors” (Gilead Sciences, Inc., priority 2018, dated 2020).
